The text below walks through data of patent US11684581B2, “Drug and layered silicate composite with improved oral bioavailability, oral pharmacological composition containing the composite and method for producing the composite” (KOREA INSTITUTE OF GEOSCIENCE AND MINERAL RESOURCES, priority 2018, dated 2023).

A short description of series [1]: Solubility of sorafenib in mixed solvent (acetonitrile / 1 N hydrochloric acid / dimethyl sulfoxide). The class given is physicochemical. Conditions: aqueous with cosolvent or surfactant or cyclodextrin; 15% acetonitrile, 83% 1 N hydrochloric acid, 2% dimethyl sulfoxide; read-out: solubility of sorafenib (dissolved concentration). As for the experimental part: In one example, the solubility of sorafenib when the ratio between acetonitrile and 1 N hydrochloric acid was adjusted while the dimethyl sulfoxide ratio in the total mixed solvent was fixed at 2% was measured. As a result, we dissolved the sorafenib at a concentration of 0.5 mg/mL while at a concentration of 15% acetonitrile and 83% of 1 N hydrochloric acid.

Series [2] in a line: Drug release (eruption) experiment in eruption solution, HPLC. The class given is physicochemical. To be noted: 50 rpm. As for the experimental part:
Drug release experiments were conducted to confirm the release of the drug from the bentonite based on the surrounding environment type. Specifically, the sorafenib 800 μg and the bentonite composite produced under the process condition of Present Example 7 containing 800 μg of sorafenib were dispersed in 40 ml of an eruption solution respectively to form two dispersions. The, each dispersion was shaken at 37° C. at 50 rpm to effect eruption.
The eruption solution used in this experiment was embodied as each of a solution of 0.1 N HCl in water at pH 1.2 and 50 mM phosphate buffer at pH 7.4. Further, 0.5% (v/v) Tween 80 (Polyoxyethyelene Sorbitan Monooleate) was added to the eruption solution to dissolve the sorafenib sufficiently.
Then, the eruption solution was collected based on a time schedule by 0.4 mL, filtered and analyzed by a high performance liquid chromatography.

Series [3] is described as follows: In vivo pharmacokinetics analysis after oral administration. To be noted: rat, 10 mg/kg based on sorafenib. The procedure: In order to evaluate the absorption and disappearance rate of the drug during oral administration, a in vivo pharmacokinetics analysis was performed on rats. A femoral artery of the rat was cannulated with PESO tubes. Then, sorafenib suspension, and sorafenib and bentonite composite suspension as produced according to Present Example 7 were orally administered into the rat. Thereafter, the rat blood was collected through the PESO tube based on a time schedule and was centrifuged to obtain plasma. After the plasma samples were pretreated, the in-blood drug concentration was analyzed using a mass spectrometer. The dose was set to 10 mg/kg based on the amount of the sorafenib. The plasma was collected over 2 days.
FIG. 7 is a graph showing changes in concentration of a drug in a blood over time in oral administration of sorafenib suspension (●) and sorafenib and bentonite composite suspension (□).

For series [4] the following is noted: cited from earlier work.

In brackets after ≈: the same amount, converted by molar mass.

On to `CNC(=O)c1cc(Oc2ccc(NC(=O)Nc3ccc(Cl)c(C(F)(F)F)c3)cc2)ccn1` [Sorafenib, sorafenib], for which, in series [1], the solubility is 500 µg/mL (≈ 1080 µM). Besides, the “released amount of the sorafenib” value in series [2] (50 mM phosphate buffer pH 7.4, 0.5% (v/v) Tween 80, 37° C., 8 hours) is on record as “below 30%”. Besides, the “released amount of the sorafenib” value in series [2] (0.1 N HCl pH 1.2, 0.5% (v/v) Tween 80, 37° C., 8 hours stated for sorafenib alone) was “below 30%”. In addition, in series [3] (plasma), the AUC(0-inf) (commonly total exposure, with the tail of the curve extrapolated) was 4850 ng·h/mL; the Cmax (usually the highest concentration seen after dosing) was 100 ± 20 ng/mL; the mean residence time (MRT) (usually a mean duration of stay, worked out from the concentration-time curve) is 20.5 h; the time of peak concentration (Tmax) (usually the time from dosing to the highest level) was 6.67 h. In addition, in series [3] (plasma), the half-life (in general, the time needed for the level to fall by half in the phase considered) was determined as 28.2 ± 6.15 h. Moreover, the AUC(0-t) – broadly, exposure summed from dosing to a finite time, without extrapolation to infinity – in series [3] (plasma collected over 2 days) was 3120 ng·h/mL. In addition, the In vivo half-life in series [4] (background statement) is 24 to 48 h. Besides, the “amount of the drug taken excreted in feces” value in series [4] (oral, during about a week until steady-state) is “More than 70%”.
